The source of these data is ChEMBL document CHEMBL5528064, “Invention of MK-7845, a SARS-CoV-2 3CL Protease Inhibitor Employing a Novel Difluorinated Glutamine Mimic” (J Med Chem, 2024).

What is called pIC50 is the IC50 on a negative log10 scale, so that one unit is a factor of ten.

Test [1] relates to SARS-CoV-2. In words: Antiviral activity against replicon RNA harboring SARS-CoV-2 infected in human A549 cells assessed as inhibition of viral growth. Format: functional, organism-based. The note with it: Severe acute respiratory syndrome coronavirus 2, A549.
For test [2], the system named is SARS-CoV-2. In words: Antiviral activity against replicon RNA harboring SARS-CoV-2 infected in human A549 cells assessed as inhibition of viral growth measured 40 hrs post treatment. Format: functional, organism-based. The note with it: Severe acute respiratory syndrome coronavirus 2, A549, 40 h. On the technique in general: A replicon is a self-replicating genome or part of one, used to study replication in cells.

The nature of test [3]: Inhibition of SARS-CoV-2 Omicron 3CLpro P132H mutant expressed in Escherichia coli (DE3) competent cells using CP488-ESATLQSGLRKAK-(CPQ2)-NH2 as substrate preincubated for 30 mins followed by substrate addition and measured after 4 hrs by FRET assay. On the set-up: species or system Severe acute respiratory syndrome coronavirus 2.
Test [4] relates to SARS-CoV-2. In words: Antiviral activity against SARS-CoV-2 Omicron B.1.1.529 harboring 3CLpro R346K mutant infected in human A549-hACE2-TMPRSS2 cells assessed as inhibition of virus induced cytopathic effect incubated for 72 hrs by celltiter glo assay. Format: functional, organism-based, Severe acute respiratory syndrome coronavirus 2. A general note: Protection from cytopathic effect is a common read-out in antiviral testing.

pIC50: −log10 of the molar value.

As for `CC(C)(C)NC(=O)N[C@H](C(=O)N1C[C@H]2[C@@H]([C@H]1C(=O)N[C@@H](C[C@@H]1CCNC1=O)C(=O)C(N)=O)C2(C)C)C(C)(C)C`, the pIC50 in the test with SARS-CoV-2 [1] was 5.12. With `COC(=O)N[C@H](C(=O)N1CCC2(CC2)C[C@H]1C(=O)N[C@@H](CCC(C)(F)F)C(=O)C(=O)NC1CC1)C(C)(C)C`, the negative logarithm of the IC50 (pIC50) in the test with SARS-CoV-2 [2] is 7.70.

For the compound `COC(=O)N[C@H](C(=O)N1CC[C@@H](C(F)(F)F)C[C@H]1C(=O)N[C@@H](CCC(C)(F)F)C(=O)C(=O)NC1CC1)C(C)(C)C`, the pIC50 in the test with SARS-CoV-2 [2] is 7.72. Consider `COC(=O)N[C@H](C(=O)N1C[C@@H]2CCC[C@@H]2[C@H]1C(=O)N[C@@H](CCC(C)(F)F)C(=O)C(=O)NC1CC1)C(C)(C)C`, for which, in the test on SARS-CoV-2 [2], the pIC50 is 7.74. For the compound `COC(=O)N[C@H](C(=O)N1C[C@H]2[C@@H]([C@H]1C(=O)N[C@@H](CCC(C)(F)F)C(=O)C(=O)NC1CC1)C21CCOCC1)C(C)(C)C`, the negative logarithm of the IC50 (pIC50) in the test on SARS-CoV-2 [2] was 7.49. With `COC(=O)N[C@H](C(=O)N1CC2(C[C@H]1C(=O)N[C@@H](CCC(C)(F)F)C(=O)C(=O)NC1CC1)CC2(F)F)C(C)(C)C` (stereo not given in full), in the test with SARS-CoV-2 [2], the pIC50 is 7.48. `CNC(=O)C(=O)[C@H](CCC(C)(F)F)NC(=O)[C@@H]1C[C@H](C(F)(F)F)CCN1C(=O)[C@@H](NC(=O)OC)C(C)(C)C`: in the test with SARS-CoV-2 [2], the pIC50 is 7.92.

`CNC(=O)C(=O)[C@H](CCC(C)(F)F)NC(=O)[C@@H]1[C@H]2CCC[C@H]2CN1C(=O)[C@@H](NC(=O)OC)C(C)(C)C`: the values for the pIC50 (in test [3]; with SARS-CoV-2 [2]; in the test with SARS-CoV-2 [4]) were 7.82, 7.82 and 6.67, respectively.
